What was measured:
Assay in all cases: Dundee kinase panel
Format in all cases: biochemical
Settings in all cases: for remaining activity at 1 µM: read-out: residual activity
p38b MAPK = molecular target: T1, p38b MAPK (Homo sapiens, UniProt Q15759)
T1 construct: lines 1-140) and Reaction Biology
Method: (§1) Compounds were screened at 1 μM. For key hits, pIC50 values were then determined by HTRF as above. […] Stability in mouse and human liver microsomes was determined by Cyprotex.

DAPK1 = molecular target: T2, DAPK1 (Homo sapiens, UniProt P53355)
T2 construct: lines 1-140) and Reaction Biology
Method: as §1

ERK1 = molecular target: T3, ERK1 (Homo sapiens, UniProt P27361)
T3 construct: lines 1-140) and Reaction Biology
Method: as §1

DDR2 = molecular target: T4, DDR2 (Homo sapiens, UniProt Q16832)
T4 construct: lines 1-140) and Reaction Biology
T4 sequence (Q16832 22-855): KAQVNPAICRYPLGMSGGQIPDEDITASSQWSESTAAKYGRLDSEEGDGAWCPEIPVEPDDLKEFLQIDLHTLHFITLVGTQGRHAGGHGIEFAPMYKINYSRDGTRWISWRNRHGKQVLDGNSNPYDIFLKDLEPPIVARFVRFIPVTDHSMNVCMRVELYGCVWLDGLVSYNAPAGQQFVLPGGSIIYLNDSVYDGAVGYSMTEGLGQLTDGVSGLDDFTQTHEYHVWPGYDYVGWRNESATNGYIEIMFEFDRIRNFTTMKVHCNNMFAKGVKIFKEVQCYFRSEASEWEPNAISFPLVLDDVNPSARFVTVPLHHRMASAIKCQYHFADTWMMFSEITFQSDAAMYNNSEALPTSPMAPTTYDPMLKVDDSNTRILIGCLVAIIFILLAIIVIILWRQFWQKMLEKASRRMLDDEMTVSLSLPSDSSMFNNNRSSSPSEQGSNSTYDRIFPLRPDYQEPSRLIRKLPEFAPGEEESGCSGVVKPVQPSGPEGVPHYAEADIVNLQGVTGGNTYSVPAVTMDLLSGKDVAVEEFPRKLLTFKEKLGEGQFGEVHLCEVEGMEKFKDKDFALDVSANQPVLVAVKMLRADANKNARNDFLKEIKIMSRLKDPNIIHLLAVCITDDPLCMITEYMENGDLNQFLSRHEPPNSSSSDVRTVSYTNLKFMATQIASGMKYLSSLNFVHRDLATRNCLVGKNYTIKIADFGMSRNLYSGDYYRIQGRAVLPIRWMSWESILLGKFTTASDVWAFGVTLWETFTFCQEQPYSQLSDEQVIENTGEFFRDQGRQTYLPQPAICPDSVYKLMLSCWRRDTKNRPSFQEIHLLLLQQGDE
Method: as §1

CAMKKb = molecular target: T5, CAMKKb (Homo sapiens, UniProt Q96RR4)
T5 construct: lines 1-140) and Reaction Biology
Method: as §1

EPH-A2 = molecular target: T6, EPH-A2 (Homo sapiens, UniProt P29317)
T6 construct: lines 1-140) and Reaction Biology
Method: as §1

ABL = molecular target: T7, ABL (Homo sapiens, UniProt P00519)
T7 construct: lines 1-140) and Reaction Biology
Method: as §1

IRR = molecular target: T8, IRR (Homo sapiens, UniProt P14616)
T8 construct: lines 1-140) and Reaction Biology
Method: as §1

CLK2 = molecular target: T9, CLK2 (Homo sapiens, UniProt P49760)
T9 construct: lines 1-140) and Reaction Biology
Method: as §1

TAK1 = molecular target: T10, TAK1 (Homo sapiens, UniProt O43318)
T10 construct: lines 1-140) and Reaction Biology
T10 sequence (O43318 1-303 limits assumed): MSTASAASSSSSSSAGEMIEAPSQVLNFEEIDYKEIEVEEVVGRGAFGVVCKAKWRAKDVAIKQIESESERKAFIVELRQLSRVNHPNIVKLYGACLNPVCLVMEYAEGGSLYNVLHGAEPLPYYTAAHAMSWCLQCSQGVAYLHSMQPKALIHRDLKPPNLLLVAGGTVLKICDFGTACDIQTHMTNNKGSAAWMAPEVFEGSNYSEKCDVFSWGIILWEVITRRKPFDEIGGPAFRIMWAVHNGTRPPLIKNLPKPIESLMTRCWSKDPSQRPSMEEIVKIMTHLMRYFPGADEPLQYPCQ
Method: as §1

NEK2a = molecular target: T11, NEK2a (Homo sapiens, UniProt P51955)
T11 construct: lines 1-140) and Reaction Biology
T11 sequence (P51955 1-445): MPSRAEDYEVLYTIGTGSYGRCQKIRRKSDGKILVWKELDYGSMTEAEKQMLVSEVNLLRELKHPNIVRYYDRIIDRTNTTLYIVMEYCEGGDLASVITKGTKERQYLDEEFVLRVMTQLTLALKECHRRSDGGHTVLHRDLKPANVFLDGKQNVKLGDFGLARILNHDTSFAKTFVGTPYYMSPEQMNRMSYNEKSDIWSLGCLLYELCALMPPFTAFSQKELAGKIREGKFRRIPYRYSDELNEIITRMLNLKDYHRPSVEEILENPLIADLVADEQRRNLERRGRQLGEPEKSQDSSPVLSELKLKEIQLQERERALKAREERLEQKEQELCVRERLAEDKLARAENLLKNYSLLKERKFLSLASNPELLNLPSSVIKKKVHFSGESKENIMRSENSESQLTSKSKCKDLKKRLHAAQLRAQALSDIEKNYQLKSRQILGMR
Method: as §1

p38d MAPK = molecular target: T12, p38d MAPK (Homo sapiens, UniProt O15264)
T12 construct: lines 1-140) and Reaction Biology
T12 sequence (O15264 1-365): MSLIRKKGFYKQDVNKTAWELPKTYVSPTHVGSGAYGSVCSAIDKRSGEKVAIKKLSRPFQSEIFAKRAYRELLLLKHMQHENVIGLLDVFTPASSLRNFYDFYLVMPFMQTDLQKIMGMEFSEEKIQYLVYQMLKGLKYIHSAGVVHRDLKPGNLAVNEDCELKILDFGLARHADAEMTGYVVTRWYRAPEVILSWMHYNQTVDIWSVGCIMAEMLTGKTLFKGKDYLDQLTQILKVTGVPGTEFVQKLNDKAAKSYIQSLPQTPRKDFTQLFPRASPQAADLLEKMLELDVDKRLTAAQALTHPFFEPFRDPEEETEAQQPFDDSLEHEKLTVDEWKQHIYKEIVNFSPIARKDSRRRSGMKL
Method: as §1

T5 sequence (Q96RR4 whole entry): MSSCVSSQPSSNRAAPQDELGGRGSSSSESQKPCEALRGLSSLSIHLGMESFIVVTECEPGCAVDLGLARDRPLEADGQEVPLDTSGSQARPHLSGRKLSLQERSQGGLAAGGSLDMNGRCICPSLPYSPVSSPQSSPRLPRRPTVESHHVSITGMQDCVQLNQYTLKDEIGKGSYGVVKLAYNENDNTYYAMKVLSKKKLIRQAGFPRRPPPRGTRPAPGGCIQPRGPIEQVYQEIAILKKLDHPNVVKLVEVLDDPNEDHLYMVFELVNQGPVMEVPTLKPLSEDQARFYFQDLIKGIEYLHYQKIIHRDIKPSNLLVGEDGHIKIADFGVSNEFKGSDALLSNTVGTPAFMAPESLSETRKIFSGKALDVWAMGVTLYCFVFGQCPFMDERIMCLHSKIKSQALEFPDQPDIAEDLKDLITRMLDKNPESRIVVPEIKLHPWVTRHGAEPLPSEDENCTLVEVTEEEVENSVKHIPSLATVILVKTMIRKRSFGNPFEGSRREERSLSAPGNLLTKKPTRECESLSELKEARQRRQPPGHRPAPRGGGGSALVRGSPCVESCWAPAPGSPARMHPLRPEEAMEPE
T3 sequence (P27361 whole entry): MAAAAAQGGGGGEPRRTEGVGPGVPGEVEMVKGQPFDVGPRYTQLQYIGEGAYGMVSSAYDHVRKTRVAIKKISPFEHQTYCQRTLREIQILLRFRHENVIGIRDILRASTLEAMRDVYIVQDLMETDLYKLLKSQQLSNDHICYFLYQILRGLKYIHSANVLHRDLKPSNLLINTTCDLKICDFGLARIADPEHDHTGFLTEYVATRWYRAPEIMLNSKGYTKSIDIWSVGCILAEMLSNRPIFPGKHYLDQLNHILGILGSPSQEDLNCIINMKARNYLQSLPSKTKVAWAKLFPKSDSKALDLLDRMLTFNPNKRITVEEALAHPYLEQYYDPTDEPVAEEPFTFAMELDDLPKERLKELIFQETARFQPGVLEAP
T8 sequence (P14616 27-1297): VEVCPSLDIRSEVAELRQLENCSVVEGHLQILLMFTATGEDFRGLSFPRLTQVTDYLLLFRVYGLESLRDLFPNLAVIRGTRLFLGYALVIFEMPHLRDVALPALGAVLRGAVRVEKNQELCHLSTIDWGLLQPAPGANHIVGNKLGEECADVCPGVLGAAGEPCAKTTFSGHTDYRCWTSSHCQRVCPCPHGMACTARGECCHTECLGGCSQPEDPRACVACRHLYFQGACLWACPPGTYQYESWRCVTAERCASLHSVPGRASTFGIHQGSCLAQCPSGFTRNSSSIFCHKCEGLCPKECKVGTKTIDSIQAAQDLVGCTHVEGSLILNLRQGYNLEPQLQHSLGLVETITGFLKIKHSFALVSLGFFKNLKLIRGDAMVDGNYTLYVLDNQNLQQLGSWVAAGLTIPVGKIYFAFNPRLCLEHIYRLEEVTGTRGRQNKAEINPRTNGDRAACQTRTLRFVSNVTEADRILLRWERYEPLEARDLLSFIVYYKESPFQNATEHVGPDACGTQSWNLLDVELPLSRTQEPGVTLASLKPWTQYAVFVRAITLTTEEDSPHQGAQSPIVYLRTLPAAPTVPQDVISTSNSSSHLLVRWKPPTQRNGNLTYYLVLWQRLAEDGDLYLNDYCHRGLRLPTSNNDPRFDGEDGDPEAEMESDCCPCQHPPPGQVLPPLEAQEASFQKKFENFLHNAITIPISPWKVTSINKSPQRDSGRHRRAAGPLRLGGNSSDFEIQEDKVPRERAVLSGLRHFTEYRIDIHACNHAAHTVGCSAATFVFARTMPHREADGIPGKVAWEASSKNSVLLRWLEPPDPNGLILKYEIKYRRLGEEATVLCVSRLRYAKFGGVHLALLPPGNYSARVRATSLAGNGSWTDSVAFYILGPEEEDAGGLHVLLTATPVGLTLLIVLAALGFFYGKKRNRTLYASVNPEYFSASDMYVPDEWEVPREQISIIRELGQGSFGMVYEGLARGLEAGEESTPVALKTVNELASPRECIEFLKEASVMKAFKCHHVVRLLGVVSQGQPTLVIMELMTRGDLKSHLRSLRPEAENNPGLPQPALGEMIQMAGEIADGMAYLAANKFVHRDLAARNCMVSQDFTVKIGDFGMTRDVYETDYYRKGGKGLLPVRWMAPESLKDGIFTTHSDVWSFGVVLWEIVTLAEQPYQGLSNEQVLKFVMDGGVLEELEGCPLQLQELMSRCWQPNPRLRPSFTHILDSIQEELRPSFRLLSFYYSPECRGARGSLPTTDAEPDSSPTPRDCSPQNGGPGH
T7 sequence (P00519 whole entry): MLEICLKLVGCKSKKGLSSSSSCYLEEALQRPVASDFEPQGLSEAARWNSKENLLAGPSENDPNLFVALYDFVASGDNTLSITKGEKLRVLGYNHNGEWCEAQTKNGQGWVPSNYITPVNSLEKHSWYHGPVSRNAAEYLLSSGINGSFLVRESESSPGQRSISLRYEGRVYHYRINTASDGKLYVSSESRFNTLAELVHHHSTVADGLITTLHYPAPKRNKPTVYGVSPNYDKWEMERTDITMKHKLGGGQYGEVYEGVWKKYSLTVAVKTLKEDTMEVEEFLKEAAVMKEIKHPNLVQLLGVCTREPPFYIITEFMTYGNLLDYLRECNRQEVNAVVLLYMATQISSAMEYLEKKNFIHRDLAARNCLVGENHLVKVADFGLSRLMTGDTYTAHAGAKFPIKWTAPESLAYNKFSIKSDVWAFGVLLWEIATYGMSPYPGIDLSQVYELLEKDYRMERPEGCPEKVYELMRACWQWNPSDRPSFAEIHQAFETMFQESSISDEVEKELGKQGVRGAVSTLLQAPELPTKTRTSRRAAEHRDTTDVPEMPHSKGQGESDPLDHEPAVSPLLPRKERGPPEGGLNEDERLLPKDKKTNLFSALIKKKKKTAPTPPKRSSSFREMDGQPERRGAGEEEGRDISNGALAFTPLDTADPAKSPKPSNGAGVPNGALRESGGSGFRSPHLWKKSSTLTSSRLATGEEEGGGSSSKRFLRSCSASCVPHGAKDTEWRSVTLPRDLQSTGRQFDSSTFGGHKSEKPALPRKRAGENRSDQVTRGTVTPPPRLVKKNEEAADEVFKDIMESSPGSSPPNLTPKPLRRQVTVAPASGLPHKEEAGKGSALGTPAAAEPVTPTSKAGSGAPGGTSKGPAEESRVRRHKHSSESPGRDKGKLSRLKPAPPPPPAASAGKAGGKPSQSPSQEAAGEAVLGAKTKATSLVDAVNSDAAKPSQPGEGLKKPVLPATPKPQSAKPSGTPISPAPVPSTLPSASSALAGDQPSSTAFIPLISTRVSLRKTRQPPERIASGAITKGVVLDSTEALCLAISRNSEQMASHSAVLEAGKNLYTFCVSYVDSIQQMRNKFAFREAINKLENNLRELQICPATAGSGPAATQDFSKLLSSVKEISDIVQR
T6 sequence (P29317 24-976): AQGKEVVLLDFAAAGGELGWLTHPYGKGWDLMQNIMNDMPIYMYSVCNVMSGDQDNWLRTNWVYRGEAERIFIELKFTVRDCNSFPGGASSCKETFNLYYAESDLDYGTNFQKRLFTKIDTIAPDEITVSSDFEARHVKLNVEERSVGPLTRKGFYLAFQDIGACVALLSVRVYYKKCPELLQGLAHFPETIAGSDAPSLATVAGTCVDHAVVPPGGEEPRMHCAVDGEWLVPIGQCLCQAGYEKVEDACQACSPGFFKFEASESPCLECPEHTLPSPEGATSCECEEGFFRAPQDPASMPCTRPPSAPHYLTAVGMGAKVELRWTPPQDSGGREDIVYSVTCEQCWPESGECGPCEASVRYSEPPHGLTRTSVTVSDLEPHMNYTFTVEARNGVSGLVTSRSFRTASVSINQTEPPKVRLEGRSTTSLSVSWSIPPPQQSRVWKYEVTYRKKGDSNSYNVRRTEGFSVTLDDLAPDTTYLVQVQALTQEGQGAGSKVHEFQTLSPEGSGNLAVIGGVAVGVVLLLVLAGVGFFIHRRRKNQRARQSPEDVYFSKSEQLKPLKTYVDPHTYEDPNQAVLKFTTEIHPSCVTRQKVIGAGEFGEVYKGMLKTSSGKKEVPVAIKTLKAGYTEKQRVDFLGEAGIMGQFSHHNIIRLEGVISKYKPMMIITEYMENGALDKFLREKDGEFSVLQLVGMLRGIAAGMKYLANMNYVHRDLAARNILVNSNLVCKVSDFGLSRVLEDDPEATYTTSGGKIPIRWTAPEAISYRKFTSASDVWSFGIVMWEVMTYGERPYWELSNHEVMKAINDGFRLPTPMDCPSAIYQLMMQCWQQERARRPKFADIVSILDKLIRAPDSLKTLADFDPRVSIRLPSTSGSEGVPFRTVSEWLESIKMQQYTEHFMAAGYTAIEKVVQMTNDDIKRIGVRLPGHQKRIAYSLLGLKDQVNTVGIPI
T9 sequence (P49760 whole entry): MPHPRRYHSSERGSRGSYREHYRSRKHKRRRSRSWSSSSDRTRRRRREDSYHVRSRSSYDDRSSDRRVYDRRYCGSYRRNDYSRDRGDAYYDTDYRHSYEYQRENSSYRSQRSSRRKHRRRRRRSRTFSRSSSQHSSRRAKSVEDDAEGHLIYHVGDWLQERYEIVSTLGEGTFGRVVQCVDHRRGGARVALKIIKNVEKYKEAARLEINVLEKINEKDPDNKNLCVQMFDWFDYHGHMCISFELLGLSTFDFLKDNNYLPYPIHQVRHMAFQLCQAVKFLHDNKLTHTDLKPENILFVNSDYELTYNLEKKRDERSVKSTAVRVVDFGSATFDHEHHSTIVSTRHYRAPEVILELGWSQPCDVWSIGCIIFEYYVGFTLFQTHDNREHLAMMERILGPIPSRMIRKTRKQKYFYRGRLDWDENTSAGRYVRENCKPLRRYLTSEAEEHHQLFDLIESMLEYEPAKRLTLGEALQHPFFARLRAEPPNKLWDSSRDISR

SMILES	remaining activity at 1 µM (p38b MAPK)	remaining activity at 1 µM (DAPK1)	remaining activity at 1 µM (ERK1)	remaining activity at 1 µM (DDR2)	remaining activity at 1 µM (CAMKKb)	remaining activity at 1 µM (EPH-A2)	remaining activity at 1 µM (ABL)	remaining activity at 1 µM (IRR)	remaining activity at 1 µM (CLK2)	remaining activity at 1 µM (TAK1)	remaining activity at 1 µM (NEK2a)	remaining activity at 1 µM (p38d MAPK)	further results
COCCOc1ccc(-c2cn(-c3ccccc3)c3nc[nH]c(=O)c23)cc1 [DMX-5804, 5-[4-(2-methoxy-ethoxy)-phenyl]-7-phenyl-3,7-dihydro-pyrrolo[2,3-d]pyrimidin-4-one]	93%	133%	107%	80%	77%	94%	79%	96%	73%	61%	106%	107%	–
Oc1ncnc2c1c(-c1ccccc1)cn2-c1ccccc1 [F1386-0303, 5,7-diphenyl-7H-pyrrolo[2,3-d]pyrimidin-4-ol]	96%	104%	124%	88%	98%	97%	94%	95%	94%	102%	108%	114%	–
Nc1ncc(C(=O)NC2CN(C(=O)C3CC3)C2)c2ccc(-c3cccc(F)c3)nc12 [GNE-495]	–	–	–	–	–	–	–	–	–	–	–	–	residual activity (p38b MAPK; 1 μM): 100%; residual activity (DAPK1; 1 μM): 126%; residual activity (ERK1; 1 μM): 143%; residual activity (DDR2; 1 μM): 109%; residual activity (CAMKKb; 1 μM): 105%; residual activity (EPH-A2; 1 μM): 112%; residual activity (ABL; 1 μM): 68%; residual activity (IRR; 1 μM): 83%; residual activity (CLK2; 1 μM): 87%; residual activity (TAK1; 1 μM): 31%; residual activity (NEK2a; 1 μM): 85%; residual activity (p38d MAPK; 1 μM): 110%
O=C1Nc2ccc(I)cc2/C1=C/c1cc(Br)c(O)c(Br)c1 [GW5074]	77%	29%	87%	62%	19%	63%	58%	61%	53%	92%	8%	82%	–
O=C1Cc2c([nH]c3ccc(Br)cc23)-c2ccccc2N1 [Kenpaullone]	95%	82%	78%	88%	72%	103%	40%	89%	109%	113%	89%	91%	–

Reference: publication PMC6458995, “MAP4K4 Inhibition Promotes Survival of Human Stem Cell-Derived Cardiomyocytes and Reduces Infarct Size In Vivo” (Cell Stem Cell, 2019)
